Assay results published in patent US12577219B2, “Macrolide brefeldin a ester derivatives and use thereof” (OCEAN UNIVERSITY OF CHINA, priority 2019, dated 2026).
Values after ≈ are worked out from the molar mass of the structure shown.

Experiments:
Kunming breed mice = test: Toxicity test after intraperitoneal administration to mice; format: in vivo; details: ip.; for Organ abnormality at anatomy: anatomy on the 14 th day; for Mental condition of the animals after administration: high and low doses; for Deaths after administration: high and low doses (BFA effective amount conversion), 14 d
Method: Objective: Observation of toxic effects of compounds after intraperitoneally administration (ip.) to mice
1) Agents: Compounds disclosed herein were formulated to a suitable concentration.
2) Animals: Kunming breed mice, weight 18-22 g, male. Provided by Jinan Pengyue Laboratory Animal Breeding Co., Ltd. Animal license number: SCXK (Shandong 20140007)
Method: Kunming breed mice, were randomly grouped by weight, 6 mice per group, namely normal control group, BFA high and low dose groups (100 mg/kg and 50 mg/kg, respectively), and high and low dose groups of some compounds disclosed herein (BFA effective amount conversion). […] After 14 d of continuous administration, all the animals were weighed, and the animals were executed to observe whether there were any abnormalities in the organs.

[1] = system: Human cervical cancer Hela cells; test: Cell proliferation assay (CCK-8); format: cell-based; details: 72 h
Excerpt: (§1) CCK-8 method: The CCK-8 method is a highly sensitive, non-radioactive colorimetric assay for the determination of the number of viable cells in cell proliferation or cytotoxicity assays. The orange formazan dye produced by the bioreduction of CCK-8 by intracellular dehydrogenase is soluble in the cell culture medium, and the amount of formazan dye produced is proportional to the number of living cells. The kit used in this method is the tetrazolium salt-WST-8 (2-(2-methoxy-4-nitrophenyl)-3-(4-nitrophenyl)-5-(2,4-disulfophenyl)-2H-tetrazolium monosodium salt) developed by Dojindo Chemical Research Institute (Dojindo), which is capable of being reduced to a water-soluble formazan dye in the presence of the electronic carrier 1-Methoxy PMS.
(§2) Human cervical cancer Hela cells, pancreatic cancer PANC-1cells, esophageal cancer Eca-109 cells, human leukemia K562 cells, human lung cancer A549 cells, human liver cancer HepG2 cells, human gastric cancer MKN-45 cells, human breast cancer MCF7 cells were cultured in DMEM medium containing 10% FBS (fetal bovine serum), 100 U/mL penicillin and 100 μg/ml streptomycin. Hepatocellular carcinoma cells Bel-7402 were cultured in RPMI-1640 medium containing 10% FBS (fetal bovine serum), 100 U/ml penicillin and 100 μg/ml streptomycin. All cells were placed in a cell culture incubator at 37° C. with 5% CO2. Cells fluid was changed every 3-5 days, and after 80% cell fusion, trypsin digestion and passaging were performed to keep the cells in good logarithmic growth phase.
(§3) All the samples to be tested were dissolved in DMSO.
(§4) Cells in logarithmic growth phase were inoculated in 96-well plates with 5000 cells/well respectively, and after 24 h of incubation, samples were added (final concentrations as shown in the table), and biplicate wells were set up for each sample. The amount of solvent of DMSO was not higher than 2%. After 72 h, 10 μL of CCK-8 solution was added to each well and incubated for 1.5˜3 h at 37° C. The OD value at 450 nm was measured on an plate reader. Inhibition rate (%)=(1−[(OD450 dosed well−OD450 blank well)/(OD450 control well−OD450 blank well)])×100%
(§5) The fitted IC50 values were calculated using the log (inhibitor) vs. response—Variable slop analysis method in GraphPad Prism software.

[2] = system: human breast cancer MCF7 cells; test: Cell proliferation assay (CCK-8); format: cell-based; details: MCF7, 72 h
Excerpt: as §1, §2, §3, §4, §5

[3] = system: human gastric cancer MKN-45 cells; test: Cell proliferation assay (CCK-8); format: cell-based; details: MKN-45, 72 h
Excerpt: as §1, §2, §3, §4, §5

[4] = system: human leukemia K562 cells; test: Cell proliferation assay (CCK-8); format: cell-based; details: K562, 72 h
Excerpt: as §1, §2, §3, §4, §5

[5] = system: human liver cancer HepG2 cells; test: Cell proliferation assay (CCK-8); format: cell-based; details: HepG2, 72 h
Excerpt: as §1, §2, §3, §4, §5

[6] = system: human lung cancer A549 cells; test: Cell proliferation assay (CCK-8); format: cell-based; details: A549, 72 h
Excerpt: as §1, §2, §3, §4, §5

[7] = system: esophageal cancer Eca-109 cells; test: Cell proliferation assay (CCK-8); format: cell-based, human; details: Eca-109, 72 h
Excerpt: as §1, §2, §3, §4, §5

[8] = system: pancreatic cancer PANC-1cells; test: Cell proliferation assay (CCK-8); format: cell-based, human; details: PANC-1, 72 h
Excerpt: as §1, §2, §3, §4, §5

physchem = details: 37 °C, thermodynamic from solid, x ± s, n = 3
Method: (§6) The term “solubility” refers to the mass of solute dissolved when a solid substance reaches saturation state in 100 g solvent at a certain temperature.
(§7) Methods: Excess BFA and the compounds disclosed herein were added to 10 mL of three solvents, methanol, acetone and 5% DMSO+95% H2O, respectively, and shaken on a shaker at 37° C. at 100 r/min for 24 h. After 24 h, the samples were centrifuged at 15,000 r/min for 15 min to remove the undissolved compounds. The supernatant was filtered using a 0.45 μm membrane filter. The supernatant was appropriately diluted with methanol and contents of the compounds were determined by HPLC method to calculate the solubility.

[9] = Solubility test (shaker 37° C., 24 h, HPLC); details: 37 °C, thermodynamic from solid
Method: as §6, §7

[10] = 5% DMSO + 95% H2O, aqueous with cosolvent or surfactant or cyclodextrin
[11] = acetone, organic solvent or mixture
[12] = methanol, organic solvent or mixture

C[C@H]1CCC/C=C/[C@@H]2C[C@H](OC(=O)/C=C/c3ccc(N(C)C)cc3)C[C@H]2[C@H](OC(=O)/C=C/c2ccc(N(C)C)cc2)/C=C/C(=O)O1 [Compound 10c, 4,7-O-bis(4-dimethylaminocinnamic acid)acyl BFA]
Organ abnormality at anatomy (Kunming breed mice): no significant abnormality in all organs
Mental condition of the animals after administration (Kunming breed mice): good mental condition
Deaths after administration (Kunming breed mice): no deaths

C[C@H]1CCC/C=C/[C@@H]2C[C@H](OC(=O)/C=C/c3cccnc3)C[C@H]2[C@H](O)/C=C/C(=O)O1 [Compound 16a, 7-O-(3-(pyridine-3-yl)acrylic acid)acyl BFA]
Organ abnormality at anatomy (Kunming breed mice): no significant abnormality in all organs
Mental condition of the animals after administration (Kunming breed mice): good mental condition
Deaths after administration (Kunming breed mice): no deaths

C[C@H]1CCC/C=C/[C@@H]2C[C@H](O)C[C@H]2[C@H](OC(=O)/C=C/c2cccnc2)/C=C/C(=O)O1 [Compound 16b]
Organ abnormality at anatomy (Kunming breed mice): no significant abnormality in all organs
Mental condition of the animals after administration (Kunming breed mice): good mental condition
Deaths after administration (Kunming breed mice): no deaths

C[C@H]1CCC/C=C/[C@@H]2C[C@H](OC(=O)/C=C/c3cccnc3)C[C@H]2[C@H](OC(=O)/C=C/c2cccnc2)/C=C/C(=O)O1 [Compound 16c]
Organ abnormality at anatomy (Kunming breed mice): no significant abnormality in all organs
Mental condition of the animals after administration (Kunming breed mice): good mental condition
Deaths after administration (Kunming breed mice): no deaths

C[C@H]1CCC/C=C/[C@@H]2C[C@H](OC(=O)/C=C/c3cnc4ccccc4c3)C[C@H]2[C@H](OC(=O)/C=C/c2cnc3ccccc3c2)/C=C/C(=O)O1 [Compound 17c]
IC50 [1]: 1 to 10 µM
IC50 [2]: 0.1 to 1 µM
IC50 [3]: 1 to 10 µM
IC50 [4]: 0.1 to 1 µM
IC50 [5]: 0.1 to 1 µM
IC50 [6]: 1 to 10 µM
IC50 [7]: 1 to 10 µM
IC50 [8]: 0.1 to 1 µM

C[C@H]1CCC/C=C/[C@@H]2C[C@H](OC(=O)/C=C/c3ccccc3)C[C@H]2[C@H](O)/C=C/C(=O)O1 [Compound A]
IC50 ([1]; Homo sapiens): 1 to 10 µM
IC50 ([2]; Homo sapiens): 0.1 to 1 µM
IC50 ([3]; Homo sapiens): 1 to 10 µM
IC50 ([4]; Homo sapiens): 0.1 to 1 µM
IC50 ([5]; Homo sapiens): 1 to 10 µM
IC50 ([6]; Homo sapiens): 1 to 10 µM
IC50 ([7]; Homo sapiens): 1 to 10 µM
IC50 ([8]; Homo sapiens): 0.1 to 1 µM
solubility at 24 h (physchem; aqueous with cosolvent or surfactant or cyclodextrin, 5% DMSO + 95% H2O): 220 ± 130 µg/mL
solubility at 24 h (physchem; organic solvent or mixture, Acetone): 9460 ± 1260 µg/mL (≈ 23 mM)
solubility at 24 h (physchem; organic solvent or mixture, Methanol): 9480 ± 1010 µg/mL (≈ 23.1 mM)

C[C@H]1CCC/C=C/[C@@H]2C[C@H](O)C[C@H]2[C@H](OC(=O)/C=C/c2ccccc2)/C=C/C(=O)O1 [Compound B]
IC50 ([1]; Homo sapiens): 1 to 10 µM
IC50 ([2]; Homo sapiens): 0.1 to 1 µM
IC50 ([3]; Homo sapiens): 1 to 10 µM
IC50 ([4]; Homo sapiens): 0.1 to 1 µM
IC50 ([5]; Homo sapiens): 1 to 10 µM
IC50 ([6]; Homo sapiens): 1 to 10 µM
IC50 ([7]; Homo sapiens): 1 to 10 µM
IC50 ([8]; Homo sapiens): 0.1 to 1 µM
solubility at 24 h [9, 10]: 220 ± 160 µg/mL
solubility at 24 h [9, 11]: 9480 ± 3230 µg/mL (≈ 23.1 mM)
solubility at 24 h [9, 12]: 9410 ± 1510 µg/mL (≈ 22.9 mM)

C[C@H]1CCC/C=C/[C@@H]2C[C@H](OC(=O)/C=C/c3ccccc3)C[C@H]2[C@H](OC(=O)/C=C/c2ccccc2)/C=C/C(=O)O1 [Compound C]
IC50 ([1]; Homo sapiens): 1 to 10 µM
IC50 ([2]; Homo sapiens): 1 to 10 µM
IC50 ([3]; Homo sapiens): 1 to 10 µM
IC50 ([4]; Homo sapiens): 1 to 10 µM
IC50 ([5]; Homo sapiens): 1 to 10 µM
IC50 ([6]; Homo sapiens): 1 to 10 µM
IC50 ([7]; Homo sapiens): 1 to 10 µM
IC50 ([8]; Homo sapiens): 1 to 10 µM
solubility at 24 h [9, 10]: 100 ± 230 µg/mL
solubility at 24 h [9, 11]: 5360 ± 3130 µg/mL (≈ 9.91 mM)
solubility at 24 h [9, 12]: 5300 ± 2510 µg/mL (≈ 9.8 mM)
